Test results taken from the NIST ThermoML archive (doi:10.1016/j.jct.2007.04.005).

Test: xn = mol fraction of the nth substance listed
Details: 318.15 K, Liquid

CCCCCCCCC [nonane] + C1CCCCC1
mass density [kg/m3]
Details | x2 = 0 | x2 = 0.09303 | x2 = 0.2009 | x2 = 0.3051 | x2 = 0.417 | x2 = 0.512 | x2 = 0.5996 | x2 = 0.7052 | x2 = 0.7993 | x2 = 0.9039
18340 kPa | – | – | – | – | – | – | – | 745.3 | 752.1 | 761.1
20370 kPa | 715 | 717.9 | 721.8 | 725.9 | 730.6 | 735.2 | 740.2 | 746.9 | 753.7 | 762.7
22390 kPa | 716.5 | 719.4 | 723.3 | 727.4 | 732.2 | 736.7 | 741.8 | 748.4 | 755.3 | 764.3
24420 kPa | 717.9 | 720.8 | 724.8 | 728.8 | 733.6 | 738.2 | 743.3 | 749.9 | 756.8 | 765.8
26450 kPa | 719.4 | 722.3 | 726.2 | 730.3 | 735.1 | 739.7 | 744.8 | 751.4 | 758.3 | 767.4
28470 kPa | 720.8 | 723.6 | 727.6 | 731.7 | 736.5 | 741.1 | 746.2 | 752.9 | 759.8 | 768.9
29490 kPa | 721.4 | 724.3 | 728.3 | 732.4 | 737.2 | 741.8 | 746.9 | 753.6 | 760.5 | 769.6
30500 kPa | 722.1 | 725 | 729 | 733.1 | 737.9 | 742.5 | 747.6 | 754.3 | 761.2 | 770.3
32530 kPa | 723.4 | 726.4 | 730.4 | 734.4 | 739.3 | 743.8 | 749 | 755.7 | 762.6 | 771.7
34550 kPa | 724.8 | 727.7 | 731.8 | 735.8 | 740.6 | 745.2 | 750.4 | 757.1 | 764 | 773.2
36580 kPa | 726.1 | 729 | 733.1 | 737.1 | 742 | 746.6 | 751.7 | 758.5 | 765.4 | 774.5
38600 kPa | 727.5 | 730.4 | 734.5 | 738.5 | 743.3 | 748 | 753.1 | 759.9 | 766.8 | 776
39620 kPa | 728.1 | 731 | 735.1 | 739.1 | 744 | 748.6 | 753.8 | 760.6 | 767.5 | 776.7
